Reference: ChEMBL document CHEMBL1150976, “The selectivity of protein kinase inhibitors: a further update” (Biochem J, 2007)
Blank lines part the entries; values can stand above or below the compound they belong to.

Experiments:
[1] = target: Serine/threonine-protein kinase N2 (Homo sapiens) (UniProt Q16513); experiment: Percentage PRK2 activity remaining in the presence of 3uM inhibitor
[2] = target: Calcium/calmodulin-dependent protein kinase type 1 (Homo sapiens) (UniProt Q14012); experiment: Percentage CaMK1 activity remaining in the presence of 3uM inhibitor
Chain of Calcium/calmodulin-dependent protein kinase type 1 (Homo sapiens) (Q14012 whole entry, looked up): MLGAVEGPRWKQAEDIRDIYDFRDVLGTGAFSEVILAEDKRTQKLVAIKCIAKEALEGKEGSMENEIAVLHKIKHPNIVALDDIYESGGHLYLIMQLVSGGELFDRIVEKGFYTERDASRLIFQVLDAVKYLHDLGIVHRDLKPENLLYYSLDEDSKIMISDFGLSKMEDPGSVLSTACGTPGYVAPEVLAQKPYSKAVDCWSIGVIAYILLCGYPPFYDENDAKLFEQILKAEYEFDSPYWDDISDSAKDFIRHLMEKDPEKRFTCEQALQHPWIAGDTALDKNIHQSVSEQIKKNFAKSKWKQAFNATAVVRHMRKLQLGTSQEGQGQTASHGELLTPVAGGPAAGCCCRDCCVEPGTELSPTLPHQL

[3] = target: RAC-beta serine/threonine-protein kinase (Homo sapiens) (UniProt P31751); experiment: Percentage PKBbeta activity remaining in the presence of 3uM inhibitor
Rattus norvegicus = organism: Rattus norvegicus; experiment: Percentage AMPK activity remaining in the presence of 3uM inhibitor
[4] = target: MAP kinase-interacting serine/threonine-protein kinase 1 (Homo sapiens) (UniProt Q9BUB5); experiment: Percentage MNK1 activity remaining in the presence of 3uM inhibitor; conditions: filed as antagonist
Chain of MAP kinase-interacting serine/threonine-protein kinase 1 (Homo sapiens) (Q9BUB5 whole entry, looked up): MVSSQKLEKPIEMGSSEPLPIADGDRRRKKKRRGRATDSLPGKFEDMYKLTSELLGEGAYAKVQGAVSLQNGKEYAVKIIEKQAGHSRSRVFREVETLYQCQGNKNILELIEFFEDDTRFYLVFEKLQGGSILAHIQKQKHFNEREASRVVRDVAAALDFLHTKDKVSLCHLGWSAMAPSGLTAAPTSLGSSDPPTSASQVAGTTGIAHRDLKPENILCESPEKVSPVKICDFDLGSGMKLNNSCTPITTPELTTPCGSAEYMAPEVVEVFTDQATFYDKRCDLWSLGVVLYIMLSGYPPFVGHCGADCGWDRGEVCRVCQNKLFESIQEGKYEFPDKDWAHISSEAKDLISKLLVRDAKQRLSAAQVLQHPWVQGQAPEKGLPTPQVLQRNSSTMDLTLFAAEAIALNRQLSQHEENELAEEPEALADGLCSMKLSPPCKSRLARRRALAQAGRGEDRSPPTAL

[5] = target: Maternal embryonic leucine zipper kinase (Homo sapiens) (UniProt Q14680); experiment: Percentage MELK activity remaining in the presence of 3uM inhibitor
Chain of Maternal embryonic leucine zipper kinase (Homo sapiens) (Q14680 whole entry, looked up): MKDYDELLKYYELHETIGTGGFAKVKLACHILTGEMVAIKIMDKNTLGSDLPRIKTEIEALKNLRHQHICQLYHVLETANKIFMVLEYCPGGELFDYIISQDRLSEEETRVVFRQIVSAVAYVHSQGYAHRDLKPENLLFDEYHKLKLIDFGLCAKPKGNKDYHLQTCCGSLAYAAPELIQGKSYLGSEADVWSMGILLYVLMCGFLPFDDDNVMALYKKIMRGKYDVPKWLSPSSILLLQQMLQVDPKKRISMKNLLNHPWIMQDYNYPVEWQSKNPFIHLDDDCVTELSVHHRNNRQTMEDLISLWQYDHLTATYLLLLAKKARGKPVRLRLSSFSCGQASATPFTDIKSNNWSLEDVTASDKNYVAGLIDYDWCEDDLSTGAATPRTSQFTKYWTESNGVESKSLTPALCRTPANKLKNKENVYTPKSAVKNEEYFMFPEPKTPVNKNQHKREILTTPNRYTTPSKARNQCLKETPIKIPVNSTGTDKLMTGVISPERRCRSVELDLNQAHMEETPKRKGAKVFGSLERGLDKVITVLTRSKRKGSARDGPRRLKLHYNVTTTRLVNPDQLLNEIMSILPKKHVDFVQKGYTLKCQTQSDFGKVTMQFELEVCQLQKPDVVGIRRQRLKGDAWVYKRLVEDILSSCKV

[6] = target: Mitogen-activated protein kinase 10 (Homo sapiens) (UniProt P53779); experiment: Percentage JNK3 activity remaining in the presence of 3uM inhibitor
Chain of Mitogen-activated protein kinase 10 (Homo sapiens) (P53779 whole entry): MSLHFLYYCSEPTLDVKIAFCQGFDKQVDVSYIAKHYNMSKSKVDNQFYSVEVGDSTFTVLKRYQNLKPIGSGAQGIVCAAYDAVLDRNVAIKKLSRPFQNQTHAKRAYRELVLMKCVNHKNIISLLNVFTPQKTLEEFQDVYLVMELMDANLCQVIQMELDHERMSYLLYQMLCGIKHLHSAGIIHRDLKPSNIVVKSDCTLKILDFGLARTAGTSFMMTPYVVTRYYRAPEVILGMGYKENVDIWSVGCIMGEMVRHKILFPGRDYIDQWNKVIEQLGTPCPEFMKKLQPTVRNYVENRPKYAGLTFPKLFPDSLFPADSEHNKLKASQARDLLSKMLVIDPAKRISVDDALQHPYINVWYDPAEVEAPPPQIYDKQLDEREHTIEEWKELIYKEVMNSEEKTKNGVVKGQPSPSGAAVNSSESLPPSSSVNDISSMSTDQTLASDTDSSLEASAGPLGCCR

[7] = target: Serine/threonine-protein kinase Nek7 (Homo sapiens) (UniProt Q8TDX7); experiment: Percentage NEK7 activity remaining in the presence of 3uM inhibitor
Chain of Serine/threonine-protein kinase Nek7 (Homo sapiens) (Q8TDX7 whole entry, looked up): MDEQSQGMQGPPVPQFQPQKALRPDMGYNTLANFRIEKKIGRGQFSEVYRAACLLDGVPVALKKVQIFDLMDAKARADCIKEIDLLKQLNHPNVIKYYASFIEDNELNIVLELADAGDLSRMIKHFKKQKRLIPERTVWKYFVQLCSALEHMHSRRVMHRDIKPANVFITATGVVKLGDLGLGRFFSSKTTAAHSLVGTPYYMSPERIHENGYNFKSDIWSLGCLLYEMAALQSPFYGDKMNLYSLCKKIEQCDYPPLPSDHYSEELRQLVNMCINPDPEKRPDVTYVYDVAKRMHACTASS

[8] = target: T1, Serine/threonine-protein kinase PAK 4 (Homo sapiens, UniProt O96013); experiment: Percentage PAK4 activity remaining in the presence of 3uM inhibitor
[9] = target: T2, Serine/threonine-protein kinase BRSK2 (Homo sapiens) (UniProt Q8IWQ3); experiment: Percentage BRSK2 activity remaining in the presence of 2uM inhibitor
T2 sequence (whole entry): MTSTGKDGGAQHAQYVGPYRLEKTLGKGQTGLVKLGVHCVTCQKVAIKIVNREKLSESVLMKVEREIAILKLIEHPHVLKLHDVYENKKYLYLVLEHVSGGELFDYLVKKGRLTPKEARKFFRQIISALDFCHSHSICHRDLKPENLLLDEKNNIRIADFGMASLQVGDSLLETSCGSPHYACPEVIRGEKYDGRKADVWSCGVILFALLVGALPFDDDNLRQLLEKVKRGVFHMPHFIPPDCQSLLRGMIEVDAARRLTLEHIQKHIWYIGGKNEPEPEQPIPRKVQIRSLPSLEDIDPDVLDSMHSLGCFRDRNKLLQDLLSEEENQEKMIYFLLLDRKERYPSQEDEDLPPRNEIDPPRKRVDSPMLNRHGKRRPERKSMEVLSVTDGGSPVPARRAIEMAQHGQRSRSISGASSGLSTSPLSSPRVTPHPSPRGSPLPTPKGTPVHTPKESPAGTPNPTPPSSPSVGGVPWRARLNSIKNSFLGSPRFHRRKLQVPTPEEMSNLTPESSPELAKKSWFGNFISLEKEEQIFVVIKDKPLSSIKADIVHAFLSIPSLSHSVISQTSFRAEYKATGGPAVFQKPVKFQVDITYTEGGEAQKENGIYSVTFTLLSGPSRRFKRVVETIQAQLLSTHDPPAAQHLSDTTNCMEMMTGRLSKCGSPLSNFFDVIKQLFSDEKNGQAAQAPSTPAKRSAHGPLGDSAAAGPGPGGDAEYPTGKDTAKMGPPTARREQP

[10] = target: MAP kinase-activated protein kinase 3 (Homo sapiens) (UniProt Q16644); experiment: Percentage MAPKAPK3 activity remaining in the presence of 2uM inhibitor
[11] = target: Cyclin-dependent kinase 2/cyclin A (Homo sapiens) (UniProt P24941+P20248+P78396); experiment: Percentage CDK2-cyclinA activity remaining in the presence of 2uM inhibitor; type: protein-complex assay
[12] = target: Calcium/calmodulin-dependent protein kinase kinase 2 (Homo sapiens) (UniProt Q96RR4); experiment: Percentage CaMKKbeta activity remaining in the presence of 2uM inhibitor
Chain of Calcium/calmodulin-dependent protein kinase kinase 2 (Homo sapiens) (Q96RR4 2-588 limits assumed): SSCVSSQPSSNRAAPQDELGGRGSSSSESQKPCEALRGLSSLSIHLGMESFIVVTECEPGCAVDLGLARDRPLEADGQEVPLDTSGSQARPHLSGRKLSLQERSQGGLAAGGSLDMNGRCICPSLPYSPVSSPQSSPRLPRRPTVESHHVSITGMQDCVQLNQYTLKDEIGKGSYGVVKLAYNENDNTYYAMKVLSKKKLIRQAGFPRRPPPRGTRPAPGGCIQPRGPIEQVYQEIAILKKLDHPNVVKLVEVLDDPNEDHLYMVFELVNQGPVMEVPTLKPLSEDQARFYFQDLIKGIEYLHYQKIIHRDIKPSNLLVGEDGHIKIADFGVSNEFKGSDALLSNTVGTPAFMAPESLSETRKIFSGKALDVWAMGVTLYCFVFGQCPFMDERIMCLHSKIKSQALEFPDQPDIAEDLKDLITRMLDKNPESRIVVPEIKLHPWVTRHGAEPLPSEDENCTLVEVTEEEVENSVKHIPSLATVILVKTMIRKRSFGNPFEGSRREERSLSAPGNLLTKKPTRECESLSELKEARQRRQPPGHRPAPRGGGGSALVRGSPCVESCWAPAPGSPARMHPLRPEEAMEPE

[13] = target: T3, Dual specificity tyrosine-phosphorylation-regulated kinase 3 (Homo sapiens) (UniProt O43781); experiment: Percentage DYRK3 activity remaining in the presence of 2uM inhibitor
T3 sequence (whole entry): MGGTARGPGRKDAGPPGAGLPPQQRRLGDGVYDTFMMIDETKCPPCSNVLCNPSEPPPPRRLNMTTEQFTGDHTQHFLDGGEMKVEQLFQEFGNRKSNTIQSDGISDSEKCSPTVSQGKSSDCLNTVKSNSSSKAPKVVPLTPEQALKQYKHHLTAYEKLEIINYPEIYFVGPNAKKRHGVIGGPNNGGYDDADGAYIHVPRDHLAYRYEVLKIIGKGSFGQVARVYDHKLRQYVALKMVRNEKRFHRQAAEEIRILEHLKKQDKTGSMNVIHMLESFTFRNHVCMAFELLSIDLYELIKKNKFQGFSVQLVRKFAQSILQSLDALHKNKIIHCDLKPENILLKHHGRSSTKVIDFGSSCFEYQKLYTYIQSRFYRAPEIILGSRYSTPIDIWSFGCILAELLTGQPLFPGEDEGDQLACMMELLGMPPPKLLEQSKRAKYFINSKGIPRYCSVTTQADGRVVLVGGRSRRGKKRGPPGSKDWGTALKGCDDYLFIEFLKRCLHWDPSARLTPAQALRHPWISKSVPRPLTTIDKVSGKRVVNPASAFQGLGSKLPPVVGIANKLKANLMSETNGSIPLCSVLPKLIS

[14] = target: Dual specificity mitogen-activated protein kinase kinase 1 (Homo sapiens) (UniProt Q02750); experiment: Percentage MKK1 activity remaining in the presence of 2uM inhibitor
Chain of Dual specificity mitogen-activated protein kinase kinase 1 (Homo sapiens) (Q02750 whole entry): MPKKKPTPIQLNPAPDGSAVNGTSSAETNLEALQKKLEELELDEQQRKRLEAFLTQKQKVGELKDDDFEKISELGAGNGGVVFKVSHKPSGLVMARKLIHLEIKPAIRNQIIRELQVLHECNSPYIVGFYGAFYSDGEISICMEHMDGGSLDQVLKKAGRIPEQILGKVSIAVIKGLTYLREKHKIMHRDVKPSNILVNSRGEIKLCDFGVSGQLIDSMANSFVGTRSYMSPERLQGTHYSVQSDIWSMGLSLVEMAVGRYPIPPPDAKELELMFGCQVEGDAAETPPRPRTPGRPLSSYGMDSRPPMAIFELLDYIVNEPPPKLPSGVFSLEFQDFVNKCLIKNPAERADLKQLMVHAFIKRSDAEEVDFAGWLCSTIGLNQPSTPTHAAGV

[15] = target: Calcium/calmodulin-dependent protein kinase type 1 (Homo sapiens) (UniProt Q14012); experiment: Percentage CaMK1 activity remaining in the presence of 2uM inhibitor
[16] = target: T1, Serine/threonine-protein kinase PAK 4; experiment: Inhibition of PAK4 in the presence of 5uM ATP
[17] = target: T4, 3-phosphoinositide-dependent protein kinase 1 (Homo sapiens) (UniProt O15530); experiment: Percentage PDK1 activity remaining in the presence of 25uM inhibitor
T4 sequence (whole entry): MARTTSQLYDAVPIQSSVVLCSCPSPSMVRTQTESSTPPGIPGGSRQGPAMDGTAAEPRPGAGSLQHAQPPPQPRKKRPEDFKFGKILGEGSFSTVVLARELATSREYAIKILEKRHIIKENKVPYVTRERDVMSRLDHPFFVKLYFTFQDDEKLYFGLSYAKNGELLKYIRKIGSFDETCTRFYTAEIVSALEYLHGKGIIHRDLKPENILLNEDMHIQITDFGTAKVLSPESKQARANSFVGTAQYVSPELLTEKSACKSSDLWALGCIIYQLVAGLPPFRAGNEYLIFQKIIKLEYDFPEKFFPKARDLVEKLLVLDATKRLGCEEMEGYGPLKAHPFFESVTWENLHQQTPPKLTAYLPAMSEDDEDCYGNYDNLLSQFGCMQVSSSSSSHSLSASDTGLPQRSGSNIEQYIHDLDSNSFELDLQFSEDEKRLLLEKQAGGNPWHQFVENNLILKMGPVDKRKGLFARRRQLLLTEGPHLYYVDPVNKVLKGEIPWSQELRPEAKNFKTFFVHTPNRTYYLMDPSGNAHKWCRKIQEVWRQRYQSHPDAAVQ

[18] = target: Mitogen-activated protein kinase 8 (Homo sapiens, UniProt P45983); experiment: Percentage JNK1 activity remaining in the presence of 25uM inhibitor
Chain of Mitogen-activated protein kinase 8 (P45983 whole entry): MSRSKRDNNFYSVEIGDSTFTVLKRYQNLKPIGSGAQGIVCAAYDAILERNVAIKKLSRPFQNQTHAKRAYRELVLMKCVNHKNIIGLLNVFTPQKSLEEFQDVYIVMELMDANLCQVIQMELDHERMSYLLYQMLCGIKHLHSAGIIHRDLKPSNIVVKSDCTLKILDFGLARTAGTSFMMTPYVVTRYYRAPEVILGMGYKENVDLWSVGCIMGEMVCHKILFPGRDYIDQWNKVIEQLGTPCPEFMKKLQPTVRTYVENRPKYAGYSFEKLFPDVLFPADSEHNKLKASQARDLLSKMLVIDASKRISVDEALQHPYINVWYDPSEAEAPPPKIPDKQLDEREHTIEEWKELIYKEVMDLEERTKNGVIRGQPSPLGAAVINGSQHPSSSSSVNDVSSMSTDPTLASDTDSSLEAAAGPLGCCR

Chain of Serine/threonine-protein kinase N2 (Homo sapiens) (Q16513 whole entry, looked up): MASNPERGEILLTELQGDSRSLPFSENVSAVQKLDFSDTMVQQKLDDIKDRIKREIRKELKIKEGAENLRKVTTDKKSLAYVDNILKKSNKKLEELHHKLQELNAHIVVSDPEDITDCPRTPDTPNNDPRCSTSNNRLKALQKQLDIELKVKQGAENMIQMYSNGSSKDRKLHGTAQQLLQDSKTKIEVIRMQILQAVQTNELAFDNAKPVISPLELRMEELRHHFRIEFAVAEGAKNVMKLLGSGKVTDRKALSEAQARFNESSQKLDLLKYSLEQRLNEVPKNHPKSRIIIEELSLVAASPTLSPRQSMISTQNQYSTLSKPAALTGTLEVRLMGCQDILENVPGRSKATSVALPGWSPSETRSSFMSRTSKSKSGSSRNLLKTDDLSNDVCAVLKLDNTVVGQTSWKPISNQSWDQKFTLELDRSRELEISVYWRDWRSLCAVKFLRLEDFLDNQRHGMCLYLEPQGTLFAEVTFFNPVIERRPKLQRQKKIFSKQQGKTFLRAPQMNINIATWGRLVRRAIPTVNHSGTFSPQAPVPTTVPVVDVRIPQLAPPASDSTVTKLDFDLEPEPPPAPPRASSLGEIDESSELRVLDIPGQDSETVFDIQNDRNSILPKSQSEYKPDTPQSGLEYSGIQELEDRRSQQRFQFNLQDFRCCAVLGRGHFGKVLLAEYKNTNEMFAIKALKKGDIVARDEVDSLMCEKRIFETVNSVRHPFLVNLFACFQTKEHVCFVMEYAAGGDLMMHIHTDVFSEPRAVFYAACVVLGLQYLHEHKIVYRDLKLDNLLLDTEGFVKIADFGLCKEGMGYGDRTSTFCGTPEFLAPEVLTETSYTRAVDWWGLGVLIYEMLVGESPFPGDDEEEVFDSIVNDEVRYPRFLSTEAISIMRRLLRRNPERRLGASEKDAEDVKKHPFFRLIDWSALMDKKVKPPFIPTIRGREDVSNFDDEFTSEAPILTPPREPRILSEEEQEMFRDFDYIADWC

Activity [1]: 83% | Activity [2]: 77% | Activity [3]: 97% | Activity (Rattus norvegicus): 79% | Activity [4]: 42% | Activity [5]: 65% | Activity [6]: 89% | Activity [7]: 92% | Activity [8]: 91%
SMILES: Cc1ccc(-c2c(C(=O)CF)n(CCCO)c3ncnc(N)c23)cc1

Activity [9]: 83% | Activity [10]: 103% | Activity [11]: 52% | Activity [12]: 82% | Activity [13]: 79% | Activity [14]: 71% | Activity [15]: 96%
SMILES: Cn1cc(C2=C(c3ccc(Cl)cc3Cl)C(=O)NC2=O)c2ccccc21

SMILES: CC(C)[C@H](CO)Nc1nc(Nc2cccc(Cl)c2)c2ncn(C(C)C)c2n1 [PURVALANOLA]
IC50 [16]: 130 nM (antagonist)

Activity [17]: 83% | Activity [18]: 91%
SMILES: NCCNS(=O)(=O)c1ccc(Cl)c2ccncc12
